The values that follow come from patent publication US20240000879A1, “HERBAL COMPOSITIONS WITH IMPROVED BIOAVAILABILITY” (priority 2017, published 2024).

The nature of this data set: Herbal composition/SNAC oral rat pharmacokinetic (PK) study (Example 5). The format is in vivo. Conditions: rats; for increase in AUC0-Tlast / increase in Cmax: oral, 50 mg/kg cannabis extract + 500 mg/kg SNAC; for time to reach the mean maximum plasma concentration (Tmax): single oral gavage. How it is done: Example 5. Summary of an herbal composition/SNAC oral rat pharmacokinetic (PK) study.
Methods. Animals were dosed on Day 1 and a series of blood samples were collected over a period of 4 hours post dose for pharmacokinetic evaluation. Animals were euthanized following collection of their last blood sample.

On to `C=C(C)[C@@H]1CCC(C)=C[C@H]1c1c(O)cc(CCCCC)cc1O` [CBD], for which the “increase in AUC0-Tlast” value is 22.1 fold and the “increase in Cmax” value was determined as 14.2 fold.
Take `CCCCCc1cc(O)c2c(c1)OC(C)(C)[C@@H]1CCC(C)=C[C@@H]21` [THC]: the “increase in AUC0-Tlast” value was found to be 6.3 fold and the “increase in Cmax” value stood at 6.9 fold. Moreover, where the note is “high dose group (50 mg extract/kg + 500 mg SNAC/kg)”, the “time to reach the mean maximum plasma concentration (Tmax)” value was determined as 2 hours post dose. For the same compound, the “time to reach the mean maximum plasma concentration (Tmax)” value (low and mid dose groups (25 mg extract/kg + 250 or 500 mg SNAC/kg)) is given as 1 hour post dose.
